Measurements taken from patent publication US9261498B2, “Biomarker for sensitivity to mTOR inhibitor therapy in kidney cancer” (The Regents of the University of California, priority 2005, dated 2016).
Entries after “also recorded” stand apart in the source; their conditions may differ.

Tested on: SN12C-VHLshRNA-HIF-2α mutant xenograft tumors
Assay: Subcutaneous xenograft tumor growth, VHL knockdown cells with HIF-2α mutant
Type: in vivo, SCID mice
Settings: 0.1 mg/kg CCI-779 daily
Protocol: FIGS. 4A-4C. Rescue of CCI-779 growth suppression by HIF-1-α and HIF-2-α prolyl hydcroxylase mutants. SN12C-CSCG-VHLshRNA cells stably infected with the prolyl hydroxylation defective cDNA mutants p-Babe-puro-HA-HIF-1α (P564A), HIF-2α (P405A; P531A) or backbone vector were treated with CCI-779 or vehicle and harvested 24 hours later. (a) Lysates were subjected to immunoblotting for HIF-1α, HIF-2α, GLUT-1, CA-IX, p-eIF4G, p-S6 and β-Actin as loading control. (b) SN12C-VHLshRNA, SN12C-VHLshRNA-HIF-1α mutant, SN12C-VHLshRNA-HIF-2α mutant cells (1×10^5) were cultured in 10% serum rich media, in the presence of vehicle, 1 or 10 nM of CCI-779 for 5 days. Cell growth was measured by cell counts (n=3). […]
For in vitro experiments, cells (5×10^4) were plated and treated with 1 and 10 nM CCI-779 (kind gift of J. Gibbons, Wyeth) or vehicle (ethanol). On day 5-post treatment, cells were trypsinized, resuspended in DMEM with 10% FBS and counted using the VI CELL counter (Beckman Coulter), according to the manufacturer's instructions. […] In vivo tumorigenicity was measured by injection of 5×10^5 SN12C-CSCG, ACHN-CSCG, SN12C-CSCG-VHLshRNAi, ACHN-CSCG-VHLshRNAi, SN12C-CSCG-VHLshRNAi-pBABE, SN12C-CSCG-VHLshRNAi-pBABE-HA-HIF-2α (P405A; P531A) cells in 100 μl of Matrigel (Collaborative Biomedical) subcutaneously into the flanks of SCID mice. […]

CO[C@H]1C[C@@H]2CC[C@@H](C)[C@@](O)(O2)C(=O)C(=O)N2CCCC[C@H]2C(=O)O[C@H]([C@H](C)C[C@@H]2CC[C@@H](OC(=O)C(C)(CO)CO)[C@H](OC)C2)CC(=O)[C@H](C)/C=C(\C)[C@@H](O)[C@@H](OC)C(=O)[C@H](C)C[C@H](C)/C=C/C=C/C=C/1C [CCI-779]
growth inhibitory effect of CCI-779 in HIF mutant xenografts: completely rescued; also recorded: reversal of both the in vitro and in vivo sensitivity
